In PMC7026418, “The kinase polypharmacology landscape of clinical PARP inhibitors” (Scientific Reports, 2020):
Like-named read-outs stand apart in the source and are kept apart here.

What was measured:
Experiment in all cases: biochemical
Design in all cases: DiscoveRx KINOMEscan active site-directed competition binding; percent of control kinase bound to immobilised ligand
[1] = target: BMPR1A (Homo sapiens, UniProt P36894)
[2] = target: T1, HIPK4 (Homo sapiens, UniProt Q8NE63)
T1 sequence (Q8NE63 1-616): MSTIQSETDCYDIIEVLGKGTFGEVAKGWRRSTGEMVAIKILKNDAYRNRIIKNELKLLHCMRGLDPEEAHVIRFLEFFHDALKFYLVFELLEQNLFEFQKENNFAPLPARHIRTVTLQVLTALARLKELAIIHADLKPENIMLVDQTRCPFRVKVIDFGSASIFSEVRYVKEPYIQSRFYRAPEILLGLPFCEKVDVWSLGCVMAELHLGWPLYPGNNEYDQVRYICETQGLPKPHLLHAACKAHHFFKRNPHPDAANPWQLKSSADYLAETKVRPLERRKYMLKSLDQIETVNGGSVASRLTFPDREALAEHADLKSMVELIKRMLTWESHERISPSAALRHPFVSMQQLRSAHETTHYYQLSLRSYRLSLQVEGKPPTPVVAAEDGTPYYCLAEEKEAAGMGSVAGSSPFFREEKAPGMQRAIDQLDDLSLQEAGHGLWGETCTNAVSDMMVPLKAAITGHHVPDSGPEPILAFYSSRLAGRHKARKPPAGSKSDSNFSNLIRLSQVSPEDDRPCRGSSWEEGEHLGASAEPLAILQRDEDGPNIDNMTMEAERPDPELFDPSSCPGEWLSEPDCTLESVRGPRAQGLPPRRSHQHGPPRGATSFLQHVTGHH

[3] = target: T2, CASK (Homo sapiens, UniProt O14936)
T2 sequence (O14936 1-926): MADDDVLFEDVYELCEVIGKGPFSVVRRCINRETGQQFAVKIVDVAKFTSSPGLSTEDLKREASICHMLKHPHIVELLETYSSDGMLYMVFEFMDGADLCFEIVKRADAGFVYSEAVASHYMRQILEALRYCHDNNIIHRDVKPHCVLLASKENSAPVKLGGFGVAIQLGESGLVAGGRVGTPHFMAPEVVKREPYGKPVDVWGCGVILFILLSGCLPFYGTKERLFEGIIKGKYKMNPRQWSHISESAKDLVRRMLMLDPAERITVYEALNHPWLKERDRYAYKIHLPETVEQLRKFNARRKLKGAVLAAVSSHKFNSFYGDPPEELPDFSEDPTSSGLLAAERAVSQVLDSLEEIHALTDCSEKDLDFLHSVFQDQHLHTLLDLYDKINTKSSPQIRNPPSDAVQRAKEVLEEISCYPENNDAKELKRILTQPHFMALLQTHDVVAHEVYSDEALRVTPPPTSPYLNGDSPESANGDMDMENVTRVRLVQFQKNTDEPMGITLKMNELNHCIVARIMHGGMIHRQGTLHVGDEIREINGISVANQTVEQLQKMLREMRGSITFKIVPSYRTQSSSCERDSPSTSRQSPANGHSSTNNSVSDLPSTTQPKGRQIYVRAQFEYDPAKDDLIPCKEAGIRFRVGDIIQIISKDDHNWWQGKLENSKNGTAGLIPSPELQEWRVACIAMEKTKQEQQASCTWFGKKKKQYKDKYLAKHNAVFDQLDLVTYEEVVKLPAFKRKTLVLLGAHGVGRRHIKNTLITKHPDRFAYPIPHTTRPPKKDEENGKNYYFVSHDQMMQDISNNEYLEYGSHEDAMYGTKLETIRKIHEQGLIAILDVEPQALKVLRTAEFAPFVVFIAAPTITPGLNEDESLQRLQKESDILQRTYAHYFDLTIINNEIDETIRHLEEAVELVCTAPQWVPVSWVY

[4] = read-out: Talazoparib (BMN 673) / %Ctrl @ 10000nM
[5] = read-out: Olaparib / %Ctrl @ 10000nM
[6] = read-out: Rucaparib / %Ctrl @ 10000nM, binding competition, % of control
[7] = read-out: Niraparib (MK-4827) / %Ctrl @ 10000nM

Chain of BMPR1A (P36894 whole entry): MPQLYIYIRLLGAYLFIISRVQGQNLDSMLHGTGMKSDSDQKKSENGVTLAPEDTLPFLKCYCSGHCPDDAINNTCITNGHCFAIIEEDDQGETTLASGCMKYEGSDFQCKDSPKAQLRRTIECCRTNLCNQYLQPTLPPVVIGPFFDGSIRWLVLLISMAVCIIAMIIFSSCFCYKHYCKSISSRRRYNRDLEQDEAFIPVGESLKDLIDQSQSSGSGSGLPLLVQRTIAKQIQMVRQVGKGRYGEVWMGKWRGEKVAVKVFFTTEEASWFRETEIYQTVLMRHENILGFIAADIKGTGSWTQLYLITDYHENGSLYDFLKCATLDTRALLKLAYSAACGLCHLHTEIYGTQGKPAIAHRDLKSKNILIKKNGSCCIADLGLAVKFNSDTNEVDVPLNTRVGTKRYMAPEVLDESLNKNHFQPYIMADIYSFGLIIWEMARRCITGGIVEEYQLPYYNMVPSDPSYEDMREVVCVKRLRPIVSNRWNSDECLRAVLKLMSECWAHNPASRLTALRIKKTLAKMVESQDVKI

Question: Cn1ncnc1[C@H]1c2n[nH]c(=O)c3cc(F)cc(c23)N[C@@H]1c1ccc(F)cc1 [Talazoparib] was tested. Which percent of control binding at 10 µM [1, 4] did it give?
Answer: 100%

Question: And the percent of control binding at 10 µM [2, 4]?
Answer: 100%

Question: And the percent of control binding at 10 µM [3, 4]?
Answer: 79%

Question: Which percent of control binding at 10 µM [1, 5] does the source give for O=C(c1cc(Cc2n[nH]c(=O)c3ccccc23)ccc1F)N1CCN(C(=O)C2CC2)CC1 [Olaparib] here?
Answer: 100%

Question: What about the percent of control binding at 10 µM [2, 5] of the same compound?
Answer: 100%

Question: What about the percent of control binding at 10 µM [3, 5] of the same compound?
Answer: 78%

Question: Which results are given for CNCc1ccc(-c2[nH]c3cc(F)cc4c3c2CCNC4=O)cc1 [Rucaparib]?
Answer: percent of control binding at 10 µM [1, 6]: 91%; percent of control binding at 10 µM [2, 6]: 51%; percent of control binding at 10 µM [3, 6]: 83%

Question: NC(=O)c1cccc2cn(-c3ccc([C@@H]4CCCNC4)cc3)nc12 [Niraparib] was tested. Which percent of control binding at 10 µM [1, 7] did it give?
Answer: 94%

Question: And the percent of control binding at 10 µM [2, 7]?
Answer: 80%

Question: What about the percent of control binding at 10 µM [3, 7] of the same compound?
Answer: 93%
